Laboratory results taken from patent publication US7935377B2, “Crystals of free (2R, 4R)-monatin and use thereof” (Ajinomoto Co., Inc., priority 2004, dated 2011).
Like-named read-outs stand apart in the source and are kept apart here.

Legend:
[1] = cited from earlier work; for intensity of sweet taste: Nakamura et al., hydrochloride salts
[2] = Hygroscopic property test (25° C., humidity 95%); format: physicochemical; details: for absorbed water: after 24 hours, 95% high humidity condition; for Increase percentage (absorbed water amount) / Weight: 25° C., humidity 95%; for water absorption: high humidity condition
Protocol: The crystals of free (2R,4R)-monatin (sample 1) prepared in Comparative Example 1, crystal of the potassium salt of (2R,4R)-monatin monohydrate (sample 2), and an amorphous solid of the potassium salt of (2R,4R)-monatin (sample 3) separately prepared were weighed out in an amount of 0.5 g, respectively, each was placed in a petri dish, and stored (retained) under a high humidity condition of 95% and a temperature of 25° C. After retention times of 1, 3, 6 and 24 hours, the weight of each sample was measured. The measuring conditions were as follows.
Apparatus name: HIFLEX TH401 supplied from ETAC.
Storing condition: 25° C., humidity of 95%.
Sample container: diameter of 25 cm, glass petri dish.

[3] = sodium salt of stereoisomer, 5% sucrose solution as control, optical purity 99% or more, cited from earlier work
[4] = Sweetness intensity of crystals of free (2R,4R)-monatin compared with an aqueous solution of 5% sucrose
Protocol: It was identified that the sweetness intensity (degree of sweetness) of the present crystals of free (2R,4R)-monatin is about 2500 times that of an aqueous solution of 5% sucrose. This sweetness intensity is nearly equivalent to the sweetness intensity (about 2700 times) of the crystals of the sodium salt of (2R,4R)-monatin evaluated by the inventors in Amino, Y. et al., WO 2003045914 A1.
1.05 mg of crystals of free (2R,4R)-monatin described in the above Comparative Example 1 were dissolved in 20 ml of ion-exchanged water. A solution was prepared by diluting this solution 2.5 times. The sweetness of this aqueous solution of the free compound of (2R,4R)-monatin was compared with that of an aqueous solution of 5% sucrose separately prepared.

Increase percentage (absorbed water amount) ([2]; retention time 0 hrs) | Weight ([2]; retention time 0 hrs) | Increase percentage (absorbed water amount) ([2]; retention time 1 hr) | Weight ([2]; retention time 1 hr) | Increase percentage (absorbed water amount) ([2]; retention time 3 hrs) | Weight ([2]; retention time 3 hrs) | Increase percentage (absorbed water amount) ([2]; retention time 6 hrs) | Weight ([2]; retention time 6 hrs) | Increase percentage (absorbed water amount) ([2]; retention time 24 hrs) | Weight ([2]; retention time 24 hrs) | Compound | degree of sweetness [3] | further results
 |  |  |  |  |  |  |  |  |  | NC(CC(O)(Cc1c[nH]c2ccccc12)C(=O)O)C(=O)O [synthetic (2S,4S)-monatin, (2S,4S)-monatin] |  | intensity of sweet taste [1]: equivalent to that of the natural specimen of monatin
0.00% | 0.5014 g | 8.82% | 0.5456 g | 8.58% | 0.5444 g | 7.30% | 0.5383 g | 7.30% | 0.5380 g | potassium salt of (2R,4R)-monatin [Sample 3] |  | absorbed water [2]: 7.3 wt. %
 |  |  |  |  |  |  |  |  |  | N[C@H](C[C@@](O)(Cc1c[nH]c2ccccc12)C(=O)O)C(=O)O [(2R,4S)-monatin substance, (2R,4S)-monatin] | 1300 times | 
 |  |  |  |  |  |  |  |  |  | N[C@@H](C[C@@](O)(Cc1c[nH]c2ccccc12)C(=O)O)C(=O)O [(2S,4S)-monatin, (2S,4S)-2-amino-4-carboxy-4-hydroxy-5-(3-indolyl)-pentanoic acid] |  | sweetness intensity ([1]; times that of sucrose, Vleggaar et al.): 800 to 1400 times
0.00% | 0.5000 g | 0.00% | 0.5000 g | 0.00% | 0.4996 g | 0.00% | 0.5001 g | 0.00% | 0.4997 g | N[C@H](CC(O)(Cc1c[nH]c2ccccc12)C(=O)O)C(=O)O (stereo partly drawn) [Sample 1, (2R,4R)-monatin] |  | water absorption ([2]; listed as crystal of free (2R,4R)-monatin): scarcely absorbs water; water absorption ([2]; listed as crystals of free (2R,4R)-monatin): no water absorption; sweetness compared with aqueous solution of 5% sucrose ([4]; 1.05 mg in 20 ml ion-exchanged water, diluted 2.5 times): nearly equivalent sweetness intensity; sweetness intensity (degree of sweetness) ([4]; relative to an aqueous solution of 5% sucrose): about 2500 times
 |  |  |  |  |  |  |  |  |  | NC(CC(O)(Cc1c[nH]c2ccccc12)C(=O)O)C(=O)O [(2S,4S)-monatin substance, (2S,4S)-monatin] | 50 times | 
 |  |  |  |  |  |  |  |  |  | N[C@@H](C[C@](O)(Cc1c[nH]c2ccccc12)C(=O)O)C(=O)O [synthetic (2S,4R)-monatin, (2S,4R)-monatin] |  | intensity of sweet taste [1]: slightly sweet taste; intensity of sweet taste ([1]; listed as hydrochloride salt of (2S,4R)-monatin): almost no sweetness
 |  |  |  |  |  |  |  |  |  | N[C@@H](C[C@](O)(Cc1c[nH]c2ccccc12)C(=O)O)C(=O)O [(2S,4R)-monatin substance, (2S,4R)-monatin] | 300 times | 
 |  |  |  |  |  |  |  |  |  | N[C@H](C[C@](O)(Cc1c[nH]c2ccccc12)C(=O)O)C(=O)O [(2R,4R)-monatin substance, (2R,4R)-monatin] | 2700 times | degree of sweetness ([3]; listed as (2R,4R)): 2700 times; degree of sweetness ([3]; listed as crystals of the sodium salt of (2R,4R)-monatin): about 2700 times
0.00% | 0.5007 g | 1.08% | 0.5061 g | 3.71% | 0.5193 g | 4.89% | 0.5252 g | 5.39% | 0.5277 g | potassium salt of (2R,4R)-monatin monohydrate [Sample 2] |  | absorbed water [2]: 5.4 wt. %
